Experimental data from patent publication US20120225062A1 (priority 2011, published 2012).
pEC50, pIC50: −log10 of the molar value.

Legend:
[1] = test system: KMS11 (human myeloma cell line); assay: Cell Proliferation Assay (CellTiter-Glo, 3 days); type: cell-based; conditions: KMS-11, 72 h, KMS11-luc cells
Method in brief: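 KMS11 myeloma cells, 2000 per well in IMDM with 10% FBS, exposed to compound for 3 days at 37° C. Viability read by CellTiter-Glo luminescence; EC50 derived.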

Pim 1 = Pim 1 (Homo sapiens, UniProt P11309); assay: Pim 1 AlphaScreen assay (high ATP)
Chain of Pim 1 (P11309 whole entry): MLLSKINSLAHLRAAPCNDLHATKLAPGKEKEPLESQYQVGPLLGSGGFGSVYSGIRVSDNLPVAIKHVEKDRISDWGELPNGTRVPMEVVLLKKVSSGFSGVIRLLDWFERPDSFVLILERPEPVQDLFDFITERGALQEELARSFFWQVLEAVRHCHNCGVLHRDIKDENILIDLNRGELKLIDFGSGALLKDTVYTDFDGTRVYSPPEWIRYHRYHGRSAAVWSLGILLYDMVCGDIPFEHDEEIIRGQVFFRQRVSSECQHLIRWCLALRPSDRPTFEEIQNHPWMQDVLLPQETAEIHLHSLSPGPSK

Pim 2 = Pim 2 (Homo sapiens, UniProt Q9P1W9); assay: Pim 2 AlphaScreen assay (high ATP)
Chain of Pim 2 (Q9P1W9 whole entry): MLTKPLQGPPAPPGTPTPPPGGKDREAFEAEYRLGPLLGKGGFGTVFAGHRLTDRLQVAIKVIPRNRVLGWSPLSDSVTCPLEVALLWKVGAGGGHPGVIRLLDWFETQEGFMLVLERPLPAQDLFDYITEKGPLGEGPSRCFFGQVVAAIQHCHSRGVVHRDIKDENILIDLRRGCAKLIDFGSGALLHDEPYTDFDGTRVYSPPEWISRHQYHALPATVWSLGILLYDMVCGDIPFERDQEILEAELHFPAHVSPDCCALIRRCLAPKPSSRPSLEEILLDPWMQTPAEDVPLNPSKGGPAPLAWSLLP

Pim 3 = Pim 3 (Homo sapiens, UniProt Q86V86); assay: Pim 3 AlphaScreen assay (high ATP)

Compound | pEC50 [1] | pIC50 (Pim 1) | pIC50 (Pim 2) | pIC50 (Pim 3)
COc1ccc(F)c(-c2nc(C(=O)Nc3cnccc3N3C[C@@H](N)[C@H](O)[C@@H](C)C3)ccc2F)c1F [Example 214, N-(4-((3R,4R,5S)-3-amino-4-hydroxy-5-methylpiperidin-1-yl)pyridin-3-yl)-6-(2,6-difluoro-3-methoxyphenyl)-5-fluoropicolinamide] | 7.49 | 10.52 | 8.97 | 9.43
C[C@@H]1C[C@H](N)C[C@H](c2ccncc2NC(=O)c2ccc(F)c(-c3c(F)cc(OCC4(C#N)CCOCC4)cc3F)n2)C1 [Example 185, N-(4-((1R,3S,5S)-3-amino-5-methylcyclohexyl)pyridin-3-yl)-6-(4-((4-cyanotetrahydro-2H-pyran-4-yl)methoxy)-2,6-difluorophenyl)-5-fluoropicolinamide] | 6.20 | 10.70 | 8.39 | 8.61
COCCOc1cc(F)c(-c2nc(C(=O)Nc3cnccc3[C@H]3C[C@@H](N)[C@@H](O)[C@@H](C)C3)ccc2F)c(F)c1 [Example 124, N-(4-((1R,3R,4S,5S)-3-amino-4-hydroxy-5-methylcyclohexyl)pyridin-3-yl)-6-(2,6-difluoro-4-(2-methoxyethoxy)phenyl)-5-fluoropicolinamide] | 6.92 | 10.22 | 8.14 | 8.76
CCOC(C)(C)c1cc(F)c(-c2nc(C(=O)Nc3cnccc3[C@@H]3C[C@H](C)C[C@H](N)C3)ccc2F)c(F)c1 [Example 145, N-(4-((1R,3S,5S)-3-amino-5-methylcyclohexyl)pyridin-3-yl)-6-(4-(2-ethoxypropan-2-yl)-2,6-difluorophenyl)-5-fluoropicolinamide] | 6.61 | 10.52 | 8.46 | 8.70
C[C@H]1C[C@@H](c2ccncc2NC(=O)c2ccc(F)c(-c3c(F)cc(C4CCOCC4)cc3F)n2)C[C@@H](N)[C@@H]1O [Example 94, N-(4-((1R,3R,4R,5S)-3-amino-4-hydroxy-5-methylcyclohexyl)pyridin-3-yl)-6-(2,6-difluoro-4-(tetrahydro-2H-pyran-4-yl)phenyl)-5-fluoropicolinamide] | 7.62 | 11.00 | 8.89 | 9.41
C[C@H]1C[C@@H](c2ccncc2NC(=O)c2ccc(F)c(-c3c(F)cc(C4CCS(=O)(=O)CC4)cc3F)n2)C[C@@H](N)[C@H]1O [Example 205, N-(4-((1R,3R,4S,5S)-3-amino-4-hydroxy-5-methylcyclohexyl)pyridin-3-yl)-6-(4-(1,1-dioxidotetrahydro-2H-thiopyran-4-yl)-2,6-difluorophenyl)-5-fluoropicolinamide] | 5.86 | 10.70 | 8.82 | 8.97
C[C@H]1C[C@@H](c2ccncc2NC(=O)c2ccc(F)c(-c3c(F)cc(C(C)(C)C#N)cc3F)n2)C[C@@H](N)[C@@H]1O [Example 165, N-(4-((1R,3R,4R,5S)-3-amino-4-hydroxy-5-methylcyclohexyl)pyridin-3-yl)-6-(4-(2-cyanopropan-2-yl)-2,6-difluorophenyl)-5-fluoropicolinamide] | 7.11 | 10.40 | 8.73 | 8.64
COCCCOc1cc(F)c(-c2nc(C(=O)Nc3cnccc3[C@H]3C[C@@H](N)[C@H](O)[C@@H](C)C3)ccc2F)c(F)c1 [Example 184, N-(4-((1R,3R,4R,5S)-3-amino-4-hydroxy-5-methylcyclohexyl)pyridin-3-yl)-6-(2,6-difluoro-4-(3-methoxypropoxy)phenyl)-5-fluoropicolinamide] | 6.79 | 10.52 | 8.45 | 9.03
CCOc1cc(F)c(-c2nc(C(=O)Nc3cnccc3N3C[C@@H](N)[C@H](O)[C@@H](C)C3)ccc2F)c(F)c1 [Example 20, N-(4-((3R,4R,5S)-3-amino-4-hydroxy-5-methylpiperidin-1-yl)pyridin-3-yl)-6-(4-ethoxy-2,6-difluorophenyl)-5-fluoropicolinamide] | 8.15 | 10.70 | 9.01 | 9.54
C[C@@H]1C[C@H](N)C[C@H](c2ccncc2NC(=O)c2ccc(F)c(-c3c(F)cc(OCCN4CCCC4=O)cc3F)n2)C1 [Example 132, N-(4-((1R,3S,5S)-3-amino-5-methylcyclohexyl)pyridin-3-yl)-6-(2,6-difluoro-4-(2-(2-oxopyrrolidin-1-yl)ethoxy)phenyl)-5-fluoropicolinamide] | 6.69 | 10.70 | 8.32 | 8.96
C[C@@H]1C[C@H](N)C[C@H](c2ccncc2NC(=O)c2ccc(F)c(-c3c(F)cc(C(C)(C)C(=O)O)cc3F)n2)C1 [Example 181, 2-(4-(6-(4-((1R,3S,5S)-3-amino-5-methylcyclohexyl)pyridin-3-ylcarbamoyl)-3-fluoropyridin-2-yl)-3,5-difluorophenyl)-2-methylpropanoic acid] | < 5.00 | 9.35 | 8.32 | 7.68
C[C@H]1C[C@@H](c2ccncc2NC(=O)c2ccc(F)c(-c3c(F)cc(OC4CCOCC4)cc3F)n2)C[C@@H](N)[C@@H]1O [Example 59] | 7.55 | 10.70 | 8.56 | 9.35
CC(C)Oc1cc(F)c(-c2nc(C(=O)Nc3cnccc3[C@H]3C[C@@H](N)[C@@H](O)[C@@H](C)C3)ccc2F)c(F)c1 [Example 125, N-(4-((1R,3R,4S,5S)-3-amino-4-hydroxy-5-methylcyclohexyl)pyridin-3-yl)-6-(2,6-difluoro-4-isopropoxyphenyl)-5-fluoropicolinamide] | 7.00 | 10.52 | 8.74 | 9.02
C[C@H]1C[C@@H](c2ccncc2NC(=O)c2ccc(F)c(-c3c(F)cc(OCC4CCOCC4)cc3F)n2)C[C@@H](N)[C@@H]1O [Example 178, N-(4-((1R,3R,4R,5S)-3-amino-4-hydroxy-5-methylcyclohexyl)pyridin-3-yl)-6-(2,6-difluoro-4-((tetrahydro-2H-pyran-4-yl)methoxy)phenyl)-5-fluoropicolinamide] | 6.40 | 10.52 | 8.85 | 9.08
COCCCOc1cc(F)c(-c2nc(C(=O)Nc3cnccc3[C@@H]3C[C@H](C)C[C@H](N)C3)ccc2F)c(F)c1 [Example 176, N-(4-((1R,3S,5S)-3-amino-5-methylcyclohexyl)pyridin-3-yl)-6-(2,6-difluoro-4-(3-methoxypropoxy)phenyl)-5-fluoropicolinamide] | 6.74 | 11.00 | 8.79 | 9.32
C[C@@H]1C[C@H](N)C[C@H](c2ccncc2NC(=O)c2ccc(F)c(-c3c(F)cc([C@@H](O)CO)cc3F)n2)C1 [Example 232, N-(4-((1R,3S,5S)-3-amino-5-methylcyclohexyl)pyridin-3-yl)-6-(4-((R)-1,2-dihydroxyethyl)-2,6-difluorophenyl)-5-fluoropicolinamide] | 7.33 | 10.30 | 8.52 | 8.68
C[C@H]1CN(c2ccncc2NC(=O)c2ccc(F)c(-c3c(F)cc([S@@+](C)[O-])cc3F)n2)C[C@@H](N)[C@@H]1O [Example 26, N-(4-((3R,4R,5S)-3-amino-4-hydroxy-5-methylpiperidin-1-yl)pyridin-3-yl)-6-(2,6-difluoro-4-((R)-methylsulfinyl)phenyl)-5-fluoropicolinamide] | 7.38 | 10.30 | 8.73 | 8.66
COCc1cc(F)c(-c2nc(C(=O)Nc3cnccc3[C@H]3C[C@@H](N)[C@H](O)[C@@H](C)C3)ccc2F)c(F)c1 [Example 40, N-(4-((1R,3R,4R,5S)-3-amino-4-hydroxy-5-methylcyclohexyl)pyridin-3-yl)-6-(2,6-difluoro-4-(methoxymethyl)phenyl)-5-fluoropicolinamide] | 7.17 | 10.10 | 8.40 | 8.58
C[C@@H]1C[C@H](N)C[C@H](c2ccncc2NC(=O)c2nc(-c3c(F)cc(C4(O)CCC4)cc3F)c(F)cc2N)C1 [Example 220, 3-amino-N-(4-((1R,3S,5S)-3-amino-5-methylcyclohexyl)pyridin-3-yl)-6-(2,6-difluoro-4-(1-hydroxycyclobutyl)phenyl)-5-fluoropicolinamide] | 8.10 | 11.00 | 9.19 | 9.85
C[C@@H]1C[C@H](N)C[C@H](c2ccncc2NC(=O)c2ccc(F)c(-c3c(F)cc(C4COC4)cc3F)n2)C1 [Example 68, N-(4-((1R,3S,5S)-3-amino-5-methylcyclohexyl)pyridin-3-yl)-6-(2,6-difluoro-4-(oxetan-3-yl)phenyl)-5-fluoropicolinamide] | 7.60 | 11.00 | 8.80 | 8.95
C[C@H]1CN(c2ccncc2NC(=O)c2ccc(F)c(-c3c(F)cc(CC(C)(C)O)cc3F)n2)C[C@@H](N)[C@@H]1O [Example 131, N-(4-((3R,4R,5S)-3-amino-4-hydroxy-5-methylpiperidin-1-yl)pyridin-3-yl)-6-(2,6-difluoro-4-(2-hydroxy-2-methylpropyl)phenyl)-5-fluoropicolinamide] | 7.60 | 11.00 | 8.88 | 9.74
C[C@H]1C[C@@H](c2ccncc2NC(=O)c2ccc(F)c(-c3c(F)cc(OC4CCOC4)cc3F)n2)C[C@@H](N)[C@@H]1O (stereo in doubt) [Example 69, N-(4-((1R,3R,4R,5S)-3-amino-4-hydroxy-5-methylcyclohexyl)pyridin-3-yl)-6-(2,6-difluoro-4-((R)-tetrahydrofuran-3-yloxy)phenyl)-5-fluoropicolinamide] | 7.22 | 10.52 | 8.62 | 9.05
